This is an account of results in paper PMC7778606, “Development of the phenylpyrazolo[3,4-d]pyrimidine-based, insulin-like growth factor receptor/Src/AXL-targeting small molecule kinase inhibitor” (Theranostics, 2021).

The test system of one data set is H1299 cells. Description: MTT assay, viability of H1299 cells. Format: cell-based. The conditions noted are these: Homo sapiens, NCI-H1299, 72 h, three days, read-out: IC50 against the viability. As for the experimental part:
(§1) Cells were seeded into 96-well plates at a density of 1-2 × 10^3 cells/well and incubated for 24 h. Cells were treated with vehicle or various concentrations of test compounds for two (PC9 and PC9/ER cells) or three (other cells) days. Cells were further incubated with MTT solution (final concentration of 500 μg/mL) for 4 h at 37 °C. The formazan products were dissolved in dimethyl sulfoxide (DMSO), and the absorbance was measured at 570 nm. The data are presented as a percentage of the control group.
On the technique in general: Tetrazolium dyes change colour on reduction, which living cells bring about.

Data set [1] deals with Wi38, RPE, and HT-22 cells. The data set can be described thus: MTT assay, viability of normal cells. The format is cell-based, human, mouse. How it is done:
as §1

A further data set deals with T1, AKT1 (Homo sapiens, UniProt P31749).
T1 construct: purchased DiscoverX KINOMEscan
Description: KINOMEscan competition binding assay. The conditions noted are these: LL6 at 10 μM; read-out: Percent Control. How it is done:
(§2) To briefly summarize, Kd was measured by a competition binding assay that quantitatively measures the ability of a compound to compete with an immobilized ligand. […] Dose response curves of 11 points are obtained for Kd values, which are measured in duplicate. See more details in the cited references [39]-[42] and see also at www.discoverx.com.

For data set [2], the target named is T2, ABL1(E255K)-phosphorylated (Homo sapiens, UniProt P00519, E255K).
T2 construct: purchased DiscoverX KINOMEscan
Description: KINOMEscan competition binding assay. The conditions noted are these: LL6 at 10 μM; read-out: Percent Control. How it is done: as §2

For another data set, the target named is T3, AKT2 (Homo sapiens, UniProt P31751).
T3 construct: purchased DiscoverX KINOMEscan
The data set can be described thus: KINOMEscan competition binding assay. The conditions noted are these: LL6 at 10 μM; read-out: Percent Control. As for the experimental part:
as §2

The target of the next data set is T4, AURKB (Homo sapiens, UniProt Q96GD4).
T4 construct: purchased DiscoverX KINOMEscan
Description: KINOMEscan competition binding assay. The conditions noted are these: LL6 at 10 μM; read-out: Percent Control. How it is done: as §2

The target in data set [3] is T5, ABL1(T315I)-phosphorylated (Homo sapiens, UniProt P00519, T315I).
T5 construct: purchased DiscoverX KINOMEscan
Description: KINOMEscan competition binding assay. The conditions noted are these: LL6 at 10 μM; read-out: Percent Control. How it is done:
as §2

A further data set has as its target T6, ADCK3 (Homo sapiens, UniProt Q8NI60).
T6 construct: purchased DiscoverX KINOMEscan
The data set can be described thus: KINOMEscan competition binding assay. The conditions noted are these: LL6 at 10 μM; read-out: Percent Control. How it is done: as §2

Another data set concerns the target T7, ACVR1B (Homo sapiens, UniProt P36896).
T7 construct: purchased DiscoverX KINOMEscan
Description: KINOMEscan competition binding assay. The conditions noted are these: LL6 at 10 μM; read-out: Percent Control. As for the experimental part: as §2

A further data set concerns the target T8, ABL1-nonphosphorylated (Homo sapiens, UniProt P00519).
T8 construct: purchased DiscoverX KINOMEscan
The data set can be described thus: KINOMEscan competition binding assay. The conditions noted are these: LL6 at 10 μM; read-out: Percent Control. How it is done: as §2

The target of another data set is T9, ABL1-phosphorylated (Homo sapiens, UniProt P00519).
T9 construct: purchased DiscoverX KINOMEscan
Description: KINOMEscan competition binding assay. The conditions noted are these: LL6 at 10 μM; read-out: Percent Control. As for the experimental part:
as §2

The subject of another data set is PC9/ER cells. The data set can be described thus: MTT assay, viability of erlotinib-resistant PC9/ER cells. The format is cell-based. The conditions noted are these: Homo sapiens, PC-9/ER, 48 h, two days, 5% FBS, read-out: IC50 against the viability. From the text:
(§3) Human lung cancer cell lines (A549, H1299, H1993, H1944, H226B, H226Br, H460, H522, HCC15, and PC9), a diploid human lung fibroblast cell line (Wi38), and the Lewis lung carcinoma (LLC) cell line were purchased from the American Type Culture Collection (ATCC, Manassas, VA, USA) or kindly provided by Dr. John V. Heymach (MD Anderson Cancer Center, Houston, TX, USA). Human retinal pigment epithelial (RPE) cells were kindly provided by Dr. Jeong Hun Kim (College of Medicine, Seoul National University, Seoul, Republic of Korea). HT-22 cells were provided by Dr. Dong Gyu Jo (College of Pharmacy, Sungkyunkwan University, Suwon, Republic of Korea). Lung cancer cells were cultured in RPMI 1640 medium supplemented with 10% fetal bovine serum (FBS) and antibiotics (Welgene, Gyeongsan-si, Republic of Korea). LLC, HT-22, and Wi38 cells were maintained in DMEM supplemented with 10% FBS and antibiotics. RPE cells were maintained in DMEM/F12 supplemented with 10% FBS and antibiotics. […]
(§4) Cells were seeded into 96-well plates at a density of 1-2 × 10^3 cells/well and incubated for 24 h. […] The formazan products were dissolved in dimethyl sulfoxide (DMSO), and the absorbance was measured at 570 nm. […]

In another data set the test system is NSCLC cell lines. The data set can be described thus: MTT assay, viability of various NSCLC cell lines. Format: cell-based. The conditions noted are these: Homo sapiens; NSCLC cells with various genetic backgrounds and histologies. As for the experimental part:
as §1

A further data set relates to H1993 cells. Description: MTT assay, viability of H1993 cells. Format: cell-based. The conditions noted are these: Homo sapiens, NCI-H1993, 72 h, three days, read-out: IC50 against the viability. As for the experimental part: as §1
In another data set the test system is H1299/PmR cells. The data set can be described thus: MTT assay, viability of pemetrexed-resistant H1299/PmR cells. The conditions noted are these: Homo sapiens, NCI-H1299, 72 h, three days, read-out: IC50 against the viability. The format is cell-based.
From the text: as §3, §4

One may read the IC50 as the concentration that inhibits the measured activity by half.

T1 sequence (P31749 whole entry): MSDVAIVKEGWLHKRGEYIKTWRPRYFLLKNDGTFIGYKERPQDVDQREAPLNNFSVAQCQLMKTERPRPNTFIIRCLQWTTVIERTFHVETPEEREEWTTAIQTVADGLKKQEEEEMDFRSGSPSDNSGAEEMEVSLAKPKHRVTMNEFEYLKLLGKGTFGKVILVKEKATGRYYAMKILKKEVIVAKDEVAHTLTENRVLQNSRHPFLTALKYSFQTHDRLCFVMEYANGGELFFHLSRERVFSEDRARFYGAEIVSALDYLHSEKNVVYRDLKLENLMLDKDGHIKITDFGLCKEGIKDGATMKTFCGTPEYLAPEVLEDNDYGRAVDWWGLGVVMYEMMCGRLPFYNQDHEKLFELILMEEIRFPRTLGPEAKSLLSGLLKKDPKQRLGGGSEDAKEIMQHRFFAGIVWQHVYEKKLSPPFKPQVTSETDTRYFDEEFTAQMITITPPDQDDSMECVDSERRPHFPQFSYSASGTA
T7 sequence (P36896 24-505): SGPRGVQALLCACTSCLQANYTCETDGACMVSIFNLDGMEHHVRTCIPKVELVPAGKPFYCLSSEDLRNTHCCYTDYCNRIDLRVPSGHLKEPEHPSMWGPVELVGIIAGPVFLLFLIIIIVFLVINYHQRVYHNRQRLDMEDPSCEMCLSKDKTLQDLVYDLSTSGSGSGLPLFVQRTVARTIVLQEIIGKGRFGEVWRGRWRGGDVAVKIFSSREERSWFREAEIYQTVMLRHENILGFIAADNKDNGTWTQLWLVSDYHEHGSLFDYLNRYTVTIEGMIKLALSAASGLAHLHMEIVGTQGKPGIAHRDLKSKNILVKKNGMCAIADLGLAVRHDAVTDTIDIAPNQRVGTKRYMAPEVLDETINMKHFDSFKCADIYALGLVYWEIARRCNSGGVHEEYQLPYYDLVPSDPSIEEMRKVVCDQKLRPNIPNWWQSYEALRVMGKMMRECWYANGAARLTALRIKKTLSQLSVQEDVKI
T3 sequence (P31751 whole entry): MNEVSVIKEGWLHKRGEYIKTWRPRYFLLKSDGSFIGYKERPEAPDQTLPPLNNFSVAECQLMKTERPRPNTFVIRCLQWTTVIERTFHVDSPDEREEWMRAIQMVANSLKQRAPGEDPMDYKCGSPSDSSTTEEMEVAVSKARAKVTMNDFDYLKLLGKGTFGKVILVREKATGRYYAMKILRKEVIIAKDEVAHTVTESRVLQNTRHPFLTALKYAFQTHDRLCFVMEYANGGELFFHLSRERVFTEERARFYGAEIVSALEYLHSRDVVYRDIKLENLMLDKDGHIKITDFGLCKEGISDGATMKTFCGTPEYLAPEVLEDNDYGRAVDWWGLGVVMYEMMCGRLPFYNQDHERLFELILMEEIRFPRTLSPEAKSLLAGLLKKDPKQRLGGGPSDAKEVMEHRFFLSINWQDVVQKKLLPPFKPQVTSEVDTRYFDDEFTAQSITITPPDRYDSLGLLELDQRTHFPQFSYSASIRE
T6 sequence (Q8NI60 163-647): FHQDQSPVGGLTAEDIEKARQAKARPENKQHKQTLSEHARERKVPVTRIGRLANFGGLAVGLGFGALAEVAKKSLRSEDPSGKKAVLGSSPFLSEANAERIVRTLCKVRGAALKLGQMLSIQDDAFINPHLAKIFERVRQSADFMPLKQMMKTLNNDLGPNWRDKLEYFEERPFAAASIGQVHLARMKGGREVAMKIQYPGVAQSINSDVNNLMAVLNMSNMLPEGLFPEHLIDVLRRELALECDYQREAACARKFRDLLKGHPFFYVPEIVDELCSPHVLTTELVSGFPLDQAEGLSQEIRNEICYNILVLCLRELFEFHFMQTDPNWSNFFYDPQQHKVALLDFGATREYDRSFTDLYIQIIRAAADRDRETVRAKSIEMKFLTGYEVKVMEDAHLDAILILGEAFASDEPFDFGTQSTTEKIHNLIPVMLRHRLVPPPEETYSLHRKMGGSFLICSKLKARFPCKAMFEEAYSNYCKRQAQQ
T4 sequence (Q96GD4 whole entry): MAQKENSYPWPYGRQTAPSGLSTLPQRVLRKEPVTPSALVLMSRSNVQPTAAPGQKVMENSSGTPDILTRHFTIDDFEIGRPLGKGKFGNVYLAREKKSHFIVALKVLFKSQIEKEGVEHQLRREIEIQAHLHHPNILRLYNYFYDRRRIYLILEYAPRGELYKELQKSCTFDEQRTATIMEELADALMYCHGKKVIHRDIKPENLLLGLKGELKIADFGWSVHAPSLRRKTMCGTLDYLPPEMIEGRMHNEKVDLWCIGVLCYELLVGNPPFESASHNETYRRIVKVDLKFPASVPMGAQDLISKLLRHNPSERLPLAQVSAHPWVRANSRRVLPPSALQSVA

On to `Nc1ncnc2c1c(-c1ccc(Cl)cc1)nn2CCn1cc(COc2ccc(Nc3nccc(Nc4cnc5ccccc5c4)n3)cc2)nn1` [LL6], for which the IC50 was 2930 nM with H1299 cells; 8610 nM in the data set on PC9/ER cells; approximately 2500 nM with NSCLC cell lines; 7790 nM in the data set with H1993 cells; 1620 nM with H1299/PmR cells. The “cytotoxicity in normal cells compared with the LDB combination” value in data set [1] is reported as “markedly less cytotoxicity”. Further, the remaining binding at 10 µM at AKT1 was determined as 100%; in data set [2], 92%; at AKT2, 77%; on AURKB, 55%; in data set [3], 100%; on ADCK3 it was 67%. The remaining binding at 10 µM at ACVR1B was 50%; at ABL1-nonphosphorylated, 61%; at ABL1-phosphorylated, 62%.
